Tests used:
Carbonic anhydrase 3 = Carbonic anhydrase 3 (Homo sapiens, UniProt P07451)
Carbonic anhydrase 13 = Carbonic anhydrase 13 (Homo sapiens, UniProt Q8N1Q1); assay: Inhibition of human recombinant carbonic anhydrase 13 after 15 mins by stopped-flow CO2 hydration assay
Carbonic anhydrase 12 = Carbonic anhydrase 12 (Homo sapiens, UniProt O43570)
Carbonic anhydrase 15 = target: T1, Carbonic anhydrase 15 (Mus musculus, UniProt Q99N23)
T1 sequence (Q99N23 whole entry): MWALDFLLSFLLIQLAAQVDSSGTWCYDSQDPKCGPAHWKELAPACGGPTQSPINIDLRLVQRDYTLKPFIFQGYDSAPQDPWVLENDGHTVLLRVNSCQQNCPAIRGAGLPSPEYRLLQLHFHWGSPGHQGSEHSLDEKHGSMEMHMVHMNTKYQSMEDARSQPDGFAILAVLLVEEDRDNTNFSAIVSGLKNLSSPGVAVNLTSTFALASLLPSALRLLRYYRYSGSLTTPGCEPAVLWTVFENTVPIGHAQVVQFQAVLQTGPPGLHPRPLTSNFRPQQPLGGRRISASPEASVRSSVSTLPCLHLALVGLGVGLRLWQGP

Carbonic anhydrase 7 = Carbonic anhydrase 7 (Homo sapiens, UniProt P43166)
Chain of Carbonic anhydrase 7 (P43166 whole entry): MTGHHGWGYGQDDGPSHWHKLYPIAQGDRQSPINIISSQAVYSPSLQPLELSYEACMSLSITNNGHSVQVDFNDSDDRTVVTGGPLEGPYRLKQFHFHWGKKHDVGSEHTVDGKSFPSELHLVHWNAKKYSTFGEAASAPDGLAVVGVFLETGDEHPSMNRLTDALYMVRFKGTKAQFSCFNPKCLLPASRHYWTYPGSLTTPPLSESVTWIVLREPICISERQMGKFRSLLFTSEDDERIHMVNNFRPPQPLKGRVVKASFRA

[1] = target: Carbonic anhydrase 5A, mitochondrial (Homo sapiens, UniProt P35218); assay: Inhibition of human recombinant carbonic anhydrase 5a after 15 mins by stopped-flow CO2 hydration assay
Chain of Carbonic anhydrase 5A, mitochondrial (P35218 whole entry): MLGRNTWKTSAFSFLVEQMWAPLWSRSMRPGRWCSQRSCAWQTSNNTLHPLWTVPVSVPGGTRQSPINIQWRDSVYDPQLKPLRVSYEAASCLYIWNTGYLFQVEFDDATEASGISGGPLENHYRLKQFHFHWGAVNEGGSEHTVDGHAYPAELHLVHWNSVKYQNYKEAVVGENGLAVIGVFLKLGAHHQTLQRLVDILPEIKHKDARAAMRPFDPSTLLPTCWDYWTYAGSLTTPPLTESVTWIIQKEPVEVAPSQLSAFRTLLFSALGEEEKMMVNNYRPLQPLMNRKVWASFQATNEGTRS

Carbonic anhydrase 14 = Carbonic anhydrase 14 (Homo sapiens, UniProt Q9ULX7); assay: Inhibition of human recombinant carbonic anhydrase 14 after 15 mins by stopped-flow CO2 hydration assay
Chain of Carbonic anhydrase 14 (Q9ULX7 whole entry): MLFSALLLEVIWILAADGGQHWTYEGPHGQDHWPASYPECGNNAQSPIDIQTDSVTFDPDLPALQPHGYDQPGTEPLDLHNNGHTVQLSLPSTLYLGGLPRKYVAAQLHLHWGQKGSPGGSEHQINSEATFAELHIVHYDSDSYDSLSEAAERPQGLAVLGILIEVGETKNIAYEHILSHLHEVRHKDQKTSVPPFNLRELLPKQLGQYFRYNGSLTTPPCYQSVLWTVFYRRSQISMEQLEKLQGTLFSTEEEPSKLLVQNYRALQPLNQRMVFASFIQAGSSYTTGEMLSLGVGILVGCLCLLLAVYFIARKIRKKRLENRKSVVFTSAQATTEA

[2] = target: Carbonic anhydrase 5B, mitochondrial (Homo sapiens, UniProt Q9Y2D0)
Chain of Carbonic anhydrase 5B, mitochondrial (Q9Y2D0 whole entry): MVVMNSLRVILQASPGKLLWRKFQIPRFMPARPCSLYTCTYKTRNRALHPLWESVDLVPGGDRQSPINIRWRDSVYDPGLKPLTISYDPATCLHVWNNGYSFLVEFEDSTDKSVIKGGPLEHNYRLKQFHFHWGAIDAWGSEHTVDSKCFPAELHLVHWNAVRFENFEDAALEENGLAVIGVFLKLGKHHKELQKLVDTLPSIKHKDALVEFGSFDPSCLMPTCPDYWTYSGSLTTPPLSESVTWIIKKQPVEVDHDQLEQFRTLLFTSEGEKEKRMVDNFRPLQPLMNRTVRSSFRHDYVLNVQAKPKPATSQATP

Carbonic anhydrase 9 = Carbonic anhydrase 9 (Homo sapiens, UniProt Q16790)
Carbonic anhydrase 1 = Carbonic anhydrase 1 (Homo sapiens, UniProt P00915)
Chain of Carbonic anhydrase 1 (P00915 whole entry): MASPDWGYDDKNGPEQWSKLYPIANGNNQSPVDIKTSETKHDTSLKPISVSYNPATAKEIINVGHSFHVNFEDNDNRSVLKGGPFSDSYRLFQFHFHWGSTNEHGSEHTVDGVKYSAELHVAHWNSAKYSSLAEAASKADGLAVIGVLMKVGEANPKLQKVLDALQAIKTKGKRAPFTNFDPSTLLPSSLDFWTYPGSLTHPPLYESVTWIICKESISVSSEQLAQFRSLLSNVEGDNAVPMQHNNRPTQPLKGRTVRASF

Chain of Carbonic anhydrase 12 (O43570 whole entry): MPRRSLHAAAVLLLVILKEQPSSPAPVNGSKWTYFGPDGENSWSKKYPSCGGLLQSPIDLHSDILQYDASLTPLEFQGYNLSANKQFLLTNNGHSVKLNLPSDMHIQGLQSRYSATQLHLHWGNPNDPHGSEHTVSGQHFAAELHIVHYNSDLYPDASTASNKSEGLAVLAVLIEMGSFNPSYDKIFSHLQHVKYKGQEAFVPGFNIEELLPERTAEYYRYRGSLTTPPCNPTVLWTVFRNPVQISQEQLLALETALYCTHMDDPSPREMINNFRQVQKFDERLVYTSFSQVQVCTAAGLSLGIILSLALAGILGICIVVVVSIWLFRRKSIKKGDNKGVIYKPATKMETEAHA
Chain of Carbonic anhydrase 3 (P07451 whole entry): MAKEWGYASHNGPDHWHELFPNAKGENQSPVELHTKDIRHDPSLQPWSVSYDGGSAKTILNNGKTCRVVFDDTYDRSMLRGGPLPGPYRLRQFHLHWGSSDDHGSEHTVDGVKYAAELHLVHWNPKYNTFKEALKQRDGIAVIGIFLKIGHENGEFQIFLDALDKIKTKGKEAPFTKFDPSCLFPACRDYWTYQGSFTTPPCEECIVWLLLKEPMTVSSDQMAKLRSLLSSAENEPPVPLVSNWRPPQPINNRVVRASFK
Chain of Carbonic anhydrase 13 (Q8N1Q1 whole entry): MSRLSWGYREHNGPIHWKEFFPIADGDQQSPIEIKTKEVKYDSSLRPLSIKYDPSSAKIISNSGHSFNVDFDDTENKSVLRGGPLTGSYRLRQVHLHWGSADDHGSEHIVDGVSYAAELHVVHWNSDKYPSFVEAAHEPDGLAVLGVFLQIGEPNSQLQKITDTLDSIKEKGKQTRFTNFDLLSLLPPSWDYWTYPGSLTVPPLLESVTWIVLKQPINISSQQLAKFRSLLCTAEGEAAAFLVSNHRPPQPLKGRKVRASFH

Structure (SMILES) | Ki (Carbonic anhydrase 3) | Ki (Carbonic anhydrase 13) | Ki (Carbonic anhydrase 12) | Ki (Carbonic anhydrase 15) | Ki (Carbonic anhydrase 7) | Ki [1] | Ki (Carbonic anhydrase 14) | Ki [2] | Ki (Carbonic anhydrase 9) | Ki (Carbonic anhydrase 1)
Nc1nnc(S(N)(=O)=O)s1 | 150000 nM | 79 nM | 34 nM | – | – | – | – | – | – | –
Nc1c(F)cc(S(=O)(=O)Nc2nnc(S(N)(=O)=O)s2)cc1Cl | – | – | 13 nM | 30 nM | 2.9 nM | – | – | – | – | –
Cc1ccc(-c2cc(C(F)(F)F)nn2-c2ccc(S(N)(=O)=O)cc2)cc1 [CELECOXIB] | 70000 nM | 98 nM | – | – | – | 794 nM | 689 nM | 93 nM | – | –
Cc1cc(C)[n+](CCc2ccc(S(N)(=O)=O)cc2)c(C)c1 | 300000 nM | – | – | 34 nM | – | – | – | – | – | –
NS(=O)(=O)c1nnc(NC(=O)C23CC4CC(CC(C4)C2)C3)s1 | 300000 nM | – | 2.8 nM | 652 nM | 35 nM | – | – | – | 6.4 nM | 883 nM
NS(=O)(=O)c1nnc(NC(=O)CC23CC4CC(CC(C4)C2)C3)s1 | 410000 nM | – | 4.7 nM | 719 nM | 48 nM | – | – | – | 49.5 nM | 362 nM

Source: ChEMBL document CHEMBL1208748 (Bioorg Med Chem Lett, 2010)
